PubChem BioAssay AID328 (DTP/NCI, 2004)
Where “and” joins values, the source holds several entries; their conditions need not be identical. Equal values may be shown once. Toxic doses and inconclusive results are not listed. Rule for the calls: active = survival T/C of 150% or more; inactive = T/C below 125% in these data.

Test system: BDF1 mice, P388 leukemia ip, median survival T/C
Assay: NCI In Vivo Anticancer Drug Screen. Data for tumor model P388 Leukemia (intraperitoneal) in B6D2F1 (BDF1) mice
Settings: endpoint: median survival time, higher = longer survival
Method in brief: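 Survival ratio, drug arm over vehicle arm, in mice with a transplanted tumour.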

[1] = dose: 100.0 mg/kg/injection, schedule: Q01DX001 (ip), vehicle: saline with Tween-80
[2] = dose: 25.0 mg/kg/injection, schedule: Q01DX009 (ip), vehicle: saline with Tween-80
[3] = dose: 50.0 mg/kg/injection, schedule: Q01DX009 (ip), vehicle: saline with Tween-80
[4] = dose: 50.0 mg/kg/injection, schedule: Q04DX003 (ip), vehicle: saline
[5] = dose: 100.0 mg/kg/injection, schedule: Q04DX003 (ip), vehicle: saline
[6] = dose: 6.25 mg/kg/injection, schedule: Q01DX009 (ip), vehicle: saline
[7] = dose: 12.5 mg/kg/injection, schedule: Q01DX009 (ip), vehicle: saline
[8] = dose: 25.0 mg/kg/injection, schedule: Q01DX009 (ip), vehicle: saline
[9] = dose: 100.0 mg/kg/injection, schedule: Q01DX009 (ip), vehicle: saline with Tween-80
[10] = dose: 200.0 mg/kg/injection, schedule: Q01DX009 (ip), vehicle: saline with Tween-80
[11] = dose: 200.0 mg/kg/injection, schedule: Q04DX003 (ip), vehicle: saline

Measured: T/C

O=C(O)C1(C(=O)O)CCC2(CCCCC2)CC1
inactive: dose: 3.12 mg/kg/injection, schedule: Q04DX003 (ip), vehicle: water 98 % of control | dose: 6.25 mg/kg/injection, schedule: Q01DX009 (ip), vehicle: water 110 % of control | dose: 6.25 mg/kg/injection, schedule: Q04DX003 (ip), vehicle: water 102 % of control | dose: 12.5 mg/kg/injection, schedule: Q01DX009 (ip), vehicle: water 94 % of control | dose: 12.5 mg/kg/injection, schedule: Q04DX003 (ip), vehicle: water 102 % of control | dose: 25.0 mg/kg/injection, schedule: Q01DX009 (ip), vehicle: water 103 % of control | dose: 25.0 mg/kg/injection, schedule: Q04DX003 (ip), vehicle: water 101 % of control and 116 % of control | dose: 50.0 mg/kg/injection, schedule: Q01DX009 (ip), vehicle: water 100 % of control | dose: 50.0 mg/kg/injection, schedule: Q04DX003 (ip), vehicle: water 101 % of control and 103 % of control | dose: 100.0 mg/kg/injection, schedule: Q04DX003 (ip), vehicle: water 90 % of control

CC(C)NCc1ccccc1Sc1ccccc1CNC(C)C
inactive: [1] 103 % of control | dose: 100.0 mg/kg/injection, schedule: Q04DX002 (ip), vehicle: saline 103 % of control

Nc1nc(C=O)c(Cc2ccc(Br)cc2)c(=O)[nH]1
inactive: [2] 123 % of control | dose: 25.0 mg/kg/injection, schedule: Q04DX003 (ip), vehicle: saline with Tween-80 104 % of control | [3] 123 % of control | dose: 50.0 mg/kg/injection, schedule: Q04DX003 (ip), vehicle: saline with Tween-80 104 % of control | dose: 66.0 mg/kg/injection, schedule: Q01DX009 (ip), vehicle: saline with Tween-80 110 % of control | dose: 100.0 mg/kg/injection, schedule: Q04DX003 (ip), vehicle: saline with Tween-80 113 % of control

c1ccc2c(c1)ccc1c[n+]3ccccc3cc12
inactive: dose: 0.25 mg/kg/injection, schedule: Q01DX009 (ip), vehicle: saline 90 % of control | dose: 0.5 mg/kg/injection, schedule: Q01DX009 (ip), vehicle: saline 90 % of control | dose: 1.0 mg/kg/injection, schedule: Q01DX009 (ip), vehicle: saline 90 % of control | dose: 2.0 mg/kg/injection, schedule: Q01DX009 (ip), vehicle: saline 90 % of control

CC1(C)COCN1CN1COCC1(C)C
active: [4] 150 % of control | [5] 155 % of control

Nc1ccc(/C=C/c2ccnc3ccccc23)cc1
inactive: dose: 3.13 mg/kg/injection, schedule: Q04DX003 (ip), vehicle: saline with Tween-80 109 % of control | dose: 6.25 mg/kg/injection, schedule: Q04DX003 (ip), vehicle: saline with Tween-80 109 % of control | dose: 12.5 mg/kg/injection, schedule: Q01DX009 (ip), vehicle: saline with Tween-80 112 % of control | dose: 12.5 mg/kg/injection, schedule: Q04DX003 (ip), vehicle: saline with Tween-80 109 % of control | [2] 91 % of control

CC(=O)c1ccc(Oc2ccc(/C(C)=N\N=C(N)N)cc2)cc1
inactive: [6] 111 % of control | [7] 112 % of control and 117 % of control | dose: 16.0 mg/kg/injection, schedule: Q01DX009 (ip), vehicle: saline 116 % of control | [8] 110 % of control

C=C1CC(OC(C)=O)C2C(OC(=O)C2(C)OC(=O)/C(C)=C\C)C2C(C)=CC(=O)C12 (stereo not given)
inactive: dose: 4.0 mg/kg/injection, schedule: Q01DX009 (ip), vehicle: Klucel (hydroxypropylcellulose) (HPC) 100 % of control | dose: 8.0 mg/kg/injection, schedule: Q01DX009 (ip), vehicle: Klucel (hydroxypropylcellulose) (HPC) 109 % of control

CC(C)=CCc1c(O)ccc(C(=O)/C=C/c2ccccc2)c1O
inactive: dose: 3.12 mg/kg/injection, schedule: Q01DX009 (ip), vehicle: Klucel (hydroxypropylcellulose) (HPC) 102 % of control | dose: 6.25 mg/kg/injection, schedule: Q01DX009 (ip), vehicle: Klucel (hydroxypropylcellulose) (HPC) 106 % of control | dose: 12.5 mg/kg/injection, schedule: Q01DX009 (ip), vehicle: Klucel (hydroxypropylcellulose) (HPC) 116 % of control | dose: 25.0 mg/kg/injection, schedule: Q01DX009 (ip), vehicle: Klucel (hydroxypropylcellulose) (HPC) 100 % of control | dose: 50.0 mg/kg/injection, schedule: Q01DX009 (ip), vehicle: Klucel (hydroxypropylcellulose) (HPC) 90 % of control | dose: 100.0 mg/kg/injection, schedule: Q01DX009 (ip), vehicle: Klucel (hydroxypropylcellulose) (HPC) 90 % of control

CC1(C)CC2(C)OC2C2(C1)N=NC(=Nc1ccccc1)O2 (stereo not given)
inactive: [3] 117 % of control

Cc1cccc(C(=O)O)[n+]1[O-]
inactive: [9] 95 % of control | [10] 90 % of control | dose: 400.0 mg/kg/injection, schedule: Q01DX009 (ip), vehicle: saline with Tween-80 90 % of control

CC1CCCCN1CCNc1ccc(CO)c2sc3ccccc3c(=O)c12 (stereo not given)
active: [9] 192 % of control and 210 % of control | dose: 150.0 mg/kg/injection, schedule: Q01DX009 (ip), vehicle: saline with Tween-80 278 % of control
inactive: [2] 115 % of control | dose: 44.0 mg/kg/injection, schedule: Q01DX009 (ip), vehicle: saline with Tween-80 119 % of control | [3] 119 % of control | [10] 97 % of control

CC(N)C(=O)NCCN(C)C (stereo not given)
inactive: dose: 50.0 mg/kg/injection, schedule: Q01DX005 (ip), vehicle: saline 95 % of control | dose: 100.0 mg/kg/injection, schedule: Q01DX005 (ip), vehicle: saline 107 % of control | dose: 200.0 mg/kg/injection, schedule: Q01DX005 (ip), vehicle: saline 99 % of control

Cc1ccc(C)c2c1CCC2C (stereo not given)
inactive: [9] 123 % of control | [10] 96 % of control

Nc1ccc(CCCCc2ccccc2)cc1
inactive: dose: 7.03 mg/kg/injection, schedule: Q04DX003 (ip), vehicle: saline 104 % of control | [7] 109 % of control | dose: 14.06 mg/kg/injection, schedule: Q04DX003 (ip), vehicle: saline 113 % of control | [8] 113 % of control | dose: 28.12 mg/kg/injection, schedule: Q04DX003 (ip), vehicle: saline 109 % of control | dose: 50.0 mg/kg/injection, schedule: Q01DX009 (ip), vehicle: saline 113 % of control | dose: 56.25 mg/kg/injection, schedule: Q04DX003 (ip), vehicle: saline 116 % of control | dose: 75.0 mg/kg/injection, schedule: Q01DX009 (ip), vehicle: saline 109 % of control

CC(=O)OC12COC1CC(O)C1(C)C(=O)C(O)C3=C(C)C(O)CC(O)(C(OC(=O)c4ccccc4)C21)C3(C)C (stereo not given)
inactive: dose: 2.0 mg/kg/injection, schedule: Q01DX009 (ip), vehicle: alcohol 100 % of control | dose: 4.0 mg/kg/injection, schedule: Q01DX009 (ip), vehicle: alcohol 95 % of control | dose: 8.0 mg/kg/injection, schedule: Q01DX009 (ip), vehicle: alcohol 100 % of control | dose: 16.0 mg/kg/injection, schedule: Q01DX009 (ip), vehicle: alcohol 95 % of control

Cc1cc(S(=O)(=O)c2ccc(Cl)cc2)nc(S(=O)(=O)c2ccc(Cl)cc2)c1C#N
inactive: dose: 50.0 mg/kg/injection, schedule: Q01DX005 (ip), vehicle: saline with Tween-80 110 % of control | dose: 100.0 mg/kg/injection, schedule: Q01DX005 (ip), vehicle: saline with Tween-80 110 % of control

O=C(O)c1nc2nc(Cl)c(Cl)nc2[nH]1
inactive: [4] 111 % of control | [5] 97 % of control | [11] 116 % of control

OCC1OC(n2ccc3c2ncn2nnnc32)C(O)C1O (stereo not given)
inactive: [6] 97 % of control | [7] 94 % of control | dose: 12.5 mg/kg/injection, schedule: Q04DX003 (ip), vehicle: saline 96 % of control | [8] 94 % of control | dose: 25.0 mg/kg/injection, schedule: Q04DX003 (ip), vehicle: saline 104 % of control | [4] 111 % of control

CC(=O)OC1CCC(C(C)(C)C)CC1 (stereo not given)
inactive: [4] 95 % of control | [5] 109 % of control | [11] 109 % of control

Cc1oc(-c2ccccc2)nc1C(=O)Cl
inactive: [1] 120 % of control | dose: 200.0 mg/kg/injection, schedule: Q01DX001 (ip), vehicle: saline with Tween-80 113 % of control | dose: 400.0 mg/kg/injection, schedule: Q01DX001 (ip), vehicle: saline with Tween-80 103 % of control
